Consider four compounds from patent US20240058347A1, “DOSAGES FOR HDAC TREATMENT WITH REDUCED SIDE EFFECTS” (VIRACTA THERAPEUTICS, INC., priority 2019, published 2024).

SMILES strings stand for the structures.

For data set [1] the following is noted: in vivo; cited from earlier work.
The conditions of data set [2]: 1,000 mg/m^2 IV once daily on days 1 to 5 of a 21-day cycle; cited from earlier work.
For data set [3] the following is noted: 30 mg twice weekly; cited from earlier work.
For the next data set, the target named is HDAC4 (Homo sapiens, UniProt P56524). Kind of data set: in vitro HDAC inhibition assay (fluorescence), HDAC4. The class given is biochemical. Conditions: read-out: Percentage Inhibition. The procedure: (§1) Briefly, all of the compounds are dissolved in DMSO. A series of dilutions of the compounds were prepared with 10% DMSO in HDAC assay buffer and 5 μl of the dilution was added to a 50 μl reaction so that the final concentration of DMSO is 1% in all of reactions. The compounds were pre-incubated in duplicate at RT for 1 hour in a mixture containing HDAC assay buffer, 5 μg BSA, HDAC enzyme (see Table 7) and a the particular HDACi. After 1 hour, the enzymatic reactions were initiated by the addition of HDAC substrate (BPS Bioscience) to a final concentration of 10 μM or 2 μM. The enzymatic reaction proceeded for 30 minutes at 37° C.
(§2) HDAC activity assays were performed in duplicates at each concentration. The fluorescent intensity data were analyzed using the computer software, Graphpad Prism. In the absence of the compound, the fluorescent intensity (Ft) in each data set was defined as 100% activity. In the absence of HDAC, the fluorescent intensity (Fb) in each data set was defined as 0% activity. The percent activity in the presence of each compound was calculated according to the following equation: % activity=(F−Fb)/(Ft−Fb), where F=the fluorescent intensity in the presence of the compound. […]

Another data set deals with T1, HDAC7 (Homo sapiens, UniProt Q8WUI4).
T1 sequence (Q8WUI4 1-952): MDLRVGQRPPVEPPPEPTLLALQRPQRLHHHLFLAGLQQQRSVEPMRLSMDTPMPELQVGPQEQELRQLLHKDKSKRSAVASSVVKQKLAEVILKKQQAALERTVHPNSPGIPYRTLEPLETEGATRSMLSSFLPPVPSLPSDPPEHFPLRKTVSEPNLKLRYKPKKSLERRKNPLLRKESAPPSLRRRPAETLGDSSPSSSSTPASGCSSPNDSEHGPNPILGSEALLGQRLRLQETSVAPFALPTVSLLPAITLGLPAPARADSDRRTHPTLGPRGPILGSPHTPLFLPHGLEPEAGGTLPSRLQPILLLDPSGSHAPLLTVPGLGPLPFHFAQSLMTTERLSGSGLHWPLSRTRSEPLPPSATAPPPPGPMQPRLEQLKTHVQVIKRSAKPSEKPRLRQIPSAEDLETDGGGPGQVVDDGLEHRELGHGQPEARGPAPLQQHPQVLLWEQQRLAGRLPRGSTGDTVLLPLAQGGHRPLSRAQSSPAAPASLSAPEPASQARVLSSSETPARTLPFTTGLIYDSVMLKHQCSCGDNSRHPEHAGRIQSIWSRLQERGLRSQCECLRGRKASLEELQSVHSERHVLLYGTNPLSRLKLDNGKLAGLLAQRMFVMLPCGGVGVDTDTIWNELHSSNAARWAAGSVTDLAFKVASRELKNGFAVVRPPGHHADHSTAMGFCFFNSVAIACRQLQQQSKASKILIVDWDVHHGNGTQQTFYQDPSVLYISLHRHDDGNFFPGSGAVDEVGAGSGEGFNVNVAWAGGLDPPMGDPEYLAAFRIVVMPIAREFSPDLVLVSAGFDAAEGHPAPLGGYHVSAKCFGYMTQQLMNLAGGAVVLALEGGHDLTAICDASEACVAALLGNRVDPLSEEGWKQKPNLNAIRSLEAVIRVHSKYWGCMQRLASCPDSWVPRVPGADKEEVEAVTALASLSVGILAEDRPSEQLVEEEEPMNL
Kind of data set: in vitro HDAC inhibition assay (fluorescence), HDAC7. The class given is biochemical. The note with it: read-out: Percentage Inhibition. Here is the method:
as §1, §2

The next data set deals with HDAC9 (Homo sapiens, UniProt Q9UKV0). Kind of data set: in vitro HDAC inhibition assay (fluorescence), HDAC9. The class given is biochemical. The note with it: read-out: Percentage Inhibition. Here is the method:
as §1, §2

The target in another data set is T2, HDAC11 (Homo sapiens, UniProt Q96DB2).
T2 sequence (Q96DB2 1-347): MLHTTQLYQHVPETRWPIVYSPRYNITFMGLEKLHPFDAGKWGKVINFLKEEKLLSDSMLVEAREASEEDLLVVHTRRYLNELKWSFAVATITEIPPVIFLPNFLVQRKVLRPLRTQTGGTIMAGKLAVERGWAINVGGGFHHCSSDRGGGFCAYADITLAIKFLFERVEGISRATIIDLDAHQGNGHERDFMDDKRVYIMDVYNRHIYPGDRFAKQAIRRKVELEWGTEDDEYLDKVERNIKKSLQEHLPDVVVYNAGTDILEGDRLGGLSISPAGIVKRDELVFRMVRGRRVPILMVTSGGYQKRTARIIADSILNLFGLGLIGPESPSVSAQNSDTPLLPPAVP
Kind of data set: in vitro HDAC inhibition assay (fluorescence), HDAC11. In kind it is biochemical. The note with it: read-out: Percentage Inhibition. Here is the method:
as §1, §2

Chain of HDAC4 (P56524 whole entry): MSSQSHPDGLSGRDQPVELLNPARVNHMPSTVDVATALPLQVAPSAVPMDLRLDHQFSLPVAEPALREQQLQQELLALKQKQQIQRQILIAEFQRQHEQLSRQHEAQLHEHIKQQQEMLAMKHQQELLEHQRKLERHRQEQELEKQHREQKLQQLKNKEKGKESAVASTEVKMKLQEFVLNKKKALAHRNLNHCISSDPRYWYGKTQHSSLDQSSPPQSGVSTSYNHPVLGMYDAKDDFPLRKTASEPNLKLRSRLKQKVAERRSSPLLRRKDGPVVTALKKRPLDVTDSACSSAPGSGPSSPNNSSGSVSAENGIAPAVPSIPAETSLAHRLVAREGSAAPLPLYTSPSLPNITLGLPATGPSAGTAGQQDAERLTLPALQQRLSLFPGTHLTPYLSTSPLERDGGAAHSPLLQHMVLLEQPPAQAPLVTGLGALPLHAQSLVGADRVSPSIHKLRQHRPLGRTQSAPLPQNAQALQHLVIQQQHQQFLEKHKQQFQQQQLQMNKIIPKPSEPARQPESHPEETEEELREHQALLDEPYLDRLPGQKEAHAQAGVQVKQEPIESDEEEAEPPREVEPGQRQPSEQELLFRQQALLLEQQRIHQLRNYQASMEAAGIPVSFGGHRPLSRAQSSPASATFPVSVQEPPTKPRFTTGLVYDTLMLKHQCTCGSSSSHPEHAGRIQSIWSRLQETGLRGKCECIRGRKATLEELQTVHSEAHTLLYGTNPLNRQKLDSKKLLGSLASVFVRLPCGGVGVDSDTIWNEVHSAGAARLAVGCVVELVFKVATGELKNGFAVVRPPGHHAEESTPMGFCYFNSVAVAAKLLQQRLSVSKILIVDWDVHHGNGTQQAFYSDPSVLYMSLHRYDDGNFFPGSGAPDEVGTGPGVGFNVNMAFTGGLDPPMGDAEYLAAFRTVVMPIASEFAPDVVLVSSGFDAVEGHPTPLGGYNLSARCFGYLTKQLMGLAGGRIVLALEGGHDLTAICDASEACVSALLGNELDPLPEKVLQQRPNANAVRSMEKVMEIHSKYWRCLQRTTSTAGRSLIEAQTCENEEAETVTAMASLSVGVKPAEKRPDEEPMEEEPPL
Chain of HDAC9 (Q9UKV0 whole entry): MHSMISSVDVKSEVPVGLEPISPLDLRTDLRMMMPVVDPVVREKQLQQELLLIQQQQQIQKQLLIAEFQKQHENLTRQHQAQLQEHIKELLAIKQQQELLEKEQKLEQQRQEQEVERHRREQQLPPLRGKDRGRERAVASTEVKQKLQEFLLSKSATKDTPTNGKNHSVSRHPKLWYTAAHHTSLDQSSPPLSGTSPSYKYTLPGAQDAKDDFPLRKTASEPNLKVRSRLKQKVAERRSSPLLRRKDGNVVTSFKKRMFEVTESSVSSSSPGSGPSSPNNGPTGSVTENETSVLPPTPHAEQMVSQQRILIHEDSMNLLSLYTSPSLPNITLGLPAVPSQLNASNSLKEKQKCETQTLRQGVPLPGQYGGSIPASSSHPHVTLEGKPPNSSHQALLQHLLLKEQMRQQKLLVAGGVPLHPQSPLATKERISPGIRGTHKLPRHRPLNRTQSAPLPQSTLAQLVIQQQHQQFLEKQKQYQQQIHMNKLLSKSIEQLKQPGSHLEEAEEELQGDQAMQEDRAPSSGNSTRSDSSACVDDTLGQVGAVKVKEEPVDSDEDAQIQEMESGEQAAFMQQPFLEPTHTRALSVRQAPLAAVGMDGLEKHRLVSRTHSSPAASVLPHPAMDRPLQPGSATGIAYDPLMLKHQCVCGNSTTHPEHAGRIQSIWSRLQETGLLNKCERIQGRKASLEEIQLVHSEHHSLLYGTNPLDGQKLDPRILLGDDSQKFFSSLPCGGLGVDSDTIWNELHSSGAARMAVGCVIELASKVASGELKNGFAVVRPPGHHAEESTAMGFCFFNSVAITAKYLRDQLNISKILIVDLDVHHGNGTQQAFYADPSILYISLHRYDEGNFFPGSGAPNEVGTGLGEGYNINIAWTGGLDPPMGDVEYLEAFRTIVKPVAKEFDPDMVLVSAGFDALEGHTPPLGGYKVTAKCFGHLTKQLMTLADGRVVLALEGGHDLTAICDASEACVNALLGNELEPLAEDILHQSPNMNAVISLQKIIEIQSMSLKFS

For `Nc1ccccc1NC(=O)c1ccc(CNC(=O)OCc2cccnc2)cc1` [MS-275, entinostat], the elimination half-life entry in data set [1] is “approximately 36 hours”. With `O=C(/C=C/c1cccc(S(=O)(=O)Nc2ccccc2)c1)NO` [belinostat], the “Grade 3 or 4 adverse effect rate” value in data set [2] was 47%. Consider `Nc1cc(F)ccc1NC(=O)c1ccc(CNC(=O)/C=C/c2cccnc2)cc1` [Chidamide, chidamide], for which the SAE rate in data set [3] was 5%. By inhibition is commonly meant the percentage by which the read-out fell short of the control. As for `C/C=C1\NC(=O)[C@H]2CSSCC/C=C/[C@H](CC(=O)N[C@H](C(C)C)C(=O)N2)OC(=O)[C@H](C(C)C)NC1=O` [FK228, romidepsin, reference compound], the inhibition at 100 µM on HDAC4, on HDAC7, at HDAC9 and at HDAC11 was below 17% in each case.
